In the supplement of paper PMC11451515:

System: NOMO1
Assay: cell viability relative to DMSO control; higher = less cytotoxic
Settings: 48 h
Summary of the method: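 Viability, reported as a per-plate percentage of DMSO wells with cell-free wells as background, came from CellTiter-Glo One luminescence. Reading took place after 48 h at 37°C. Before that, NOMO1 or SEM (500 cells/well) or P12-Ichikawa (1000 cells/well) leukemia cells, adapted for at least four passages in each medium, were seeded in 1536-well plates (5 μl) and pin-dosed with library compounds in DMSO, 47 μM to 0.79 nM over 11 threefold points.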

[1] = HPLM + 10% dialyzed FBS, 0.000781 µM
[2] = HPLM + 10% dialyzed FBS, 0.00234 µM
[3] = HPLM + 10% dialyzed FBS, 0.00702 µM
[4] = HPLM + 10% dialyzed FBS, 0.0211 µM
[5] = HPLM + 10% dialyzed FBS, 0.0632 µM
[6] = HPLM + 10% dialyzed FBS, 0.19 µM
[7] = HPLM + 10% dialyzed FBS, 0.569 µM
[8] = HPLM + 10% dialyzed FBS, 1.71 µM
[9] = HPLM + 10% dialyzed FBS, 5.12 µM
[10] = HPLM + 10% dialyzed FBS, 15.4 µM
[11] = HPLM + 10% dialyzed FBS, 46.1 µM
[12] = RPMI 5 mM glucose + 10% FBS, 0.000781 µM
[13] = RPMI 5 mM glucose + 10% FBS, 0.00234 µM
[14] = RPMI 5 mM glucose + 10% FBS, 0.00702 µM
[15] = RPMI 5 mM glucose + 10% FBS, 0.0211 µM
[16] = RPMI 5 mM glucose + 10% FBS, 0.0632 µM
[17] = RPMI 5 mM glucose + 10% FBS, 0.19 µM
[18] = RPMI 5 mM glucose + 10% FBS, 0.569 µM
[19] = RPMI 5 mM glucose + 10% FBS, 1.71 µM
[20] = RPMI 5 mM glucose + 10% FBS, 5.12 µM
[21] = RPMI 5 mM glucose + 10% FBS, 15.4 µM
[22] = RPMI 5 mM glucose + 10% FBS, 46.1 µM
[23] = RPMI 5 mM glucose + 10% dialyzed FBS, 0.000781 µM
[24] = RPMI 5 mM glucose + 10% dialyzed FBS, 0.00234 µM
[25] = RPMI 5 mM glucose + 10% dialyzed FBS, 0.00702 µM
[26] = RPMI 5 mM glucose + 10% dialyzed FBS, 0.0211 µM
[27] = RPMI 5 mM glucose + 10% dialyzed FBS, 0.0632 µM
[28] = RPMI 5 mM glucose + 10% dialyzed FBS, 0.19 µM
[29] = RPMI 5 mM glucose + 10% dialyzed FBS, 0.569 µM
[30] = RPMI 5 mM glucose + 10% dialyzed FBS, 1.71 µM
[31] = RPMI 5 mM glucose + 10% dialyzed FBS, 5.12 µM
[32] = RPMI 5 mM glucose + 10% dialyzed FBS, 15.4 µM
[33] = RPMI 5 mM glucose + 10% dialyzed FBS, 46.1 µM

| SMILES | cell viability [1] | cell viability [2] | cell viability [3] | cell viability [4] | cell viability [5] | cell viability [6] | cell viability [7] | cell viability [8] | cell viability [9] | cell viability [10] | cell viability [11] | cell viability [12] | cell viability [13] | cell viability [14] | cell viability [15] | cell viability [16] | cell viability [17] | cell viability [18] | cell viability [19] | cell viability [20] | cell viability [21] | cell viability [22] | cell viability [23] | cell viability [24] | cell viability [25] | cell viability [26] | cell viability [27] | cell viability [28] | cell viability [29] | cell viability [30] | cell viability [31] | cell viability [32] | cell viability [33] |
| --- | --- | --- | --- | --- | --- | --- | --- | --- | --- | --- | --- | --- | --- | --- | --- | --- | --- | --- | --- | --- | --- | --- | --- | --- | --- | --- | --- | --- | --- | --- | --- | --- | --- |
| CC(C)NCC(O)COc1ccc(COCCOC(C)C)cc1 (centres undefined) | 114% | 110% | 121% | 113% | 122% | 99.8% | 118% | 109% | 109% | 95.4% | 73.1% | 108% | 116% | 108% | 107% | 114% | 116% | 107% | 110% | 97.3% | 103% | 91.4% | 111% | 111% | 119% | 105% | 129% | 111% | 111% | 99.7% | 111% | 116% | 88.7% |
| COC1=NC(=NC(=C1N\C2=N\CCN2)Cl)C | 113% | 94.9% | 90.3% | 93.6% | 111% | 104% | 89.5% | 109% | 82% | 97.6% | 84.8% | 79.1% | 83.8% | 89.1% | 93.1% | 94% | 100% | 84.2% | 91.8% | 92.5% | 86.5% | 90% | 86.2% | 85.8% | 82.8% | 85% | 95.6% | 94% | 91.3% | 86.5% | 80.3% | 89.5% | 85.3% |
| Cc1c(CCOc2ccc(C(=O)O)cc2)c2cc(Cl)ccc2n1C(c1ccccc1)c1ccccc1 | 119% | 121% | 111% | 116% | 109% | 107% | 115% | 123% | 105% | 95% | 73.8% | 108% | 103% | 108% | 108% | 112% | 97.9% | 94.8% | 74.8% | 98.7% | 99.9% | 93.6% | 111% | 124% | 125% | 120% | 116% | 106% | 98.6% | 115% | 113% | 101% | 97.3% |
| CCC[C@H](NC(=O)/C(C#N)=C/c1cccc(Br)n1)c1ccccc1 | – | – | – | – | – | – | – | – | – | – | – | 110% | 123% | 116% | 111% | 111% | 107% | 103% | 108% | 104% | 111% | 4.55% | 109% | 114% | 122% | 115% | 109% | 117% | 120% | 116% | 108% | 99.9% | 4.54% |
| COc1ccc(CC2NCCc3cc(OC)c(OC)cc32)cc1OC (centres undefined) | 91.9% | 87.5% | 82.6% | 103% | 102% | 98.7% | 91.6% | 87.4% | 101% | 93.7% | 98.4% | 88.1% | 86.2% | 87% | 90.8% | 86.8% | 89.3% | 89.7% | 94.7% | 86.6% | 89.4% | 97.1% | 79.5% | 84.1% | 83.9% | 91.2% | 86.3% | 89.2% | 82.9% | 91% | 89.5% | 73.3% | 85.4% |
| CCN(CC)CC#CCOC(=O)C(O)(c1ccccc1)C1CCCCC1 (centres undefined) | – | – | – | – | – | – | – | – | – | – | – | 133% | 115% | 122% | 113% | 138% | 127% | 117% | 137% | 120% | 125% | 117% | 128% | 121% | 120% | 124% | 140% | 123% | 140% | 132% | 135% | 134% | 120% |
| C/C=C(/C)C(=O)O[C@H]1C(C)=C2[C@H]([C@@H]1OC(=O)CCCCCCC)[C@@](C)(OC(C)=O)C[C@H](OC(=O)CCC)[C@@]1(O)[C@H]2OC(=O)[C@@]1(C)O | 100% | 110% | 99.4% | 127% | 56.6% | 12.5% | 7.29% | 4.31% | 2.9% | 2.91% | 5% | 112% | 112% | 130% | 119% | 92.7% | 17% | 9.53% | 10.4% | 6.41% | 3.83% | 5.08% | 117% | 121% | 129% | 123% | 68% | 13.4% | 8.71% | 10.1% | 7.55% | 5.66% | 5.67% |
| C[C@](O)(COc1ccc(C#N)cc1)C(=O)Nc1ccc(C#N)c(C(F)(F)F)c1 | 83.2% | 81.5% | 81.2% | 95.6% | 90.1% | 99.1% | 90.4% | 96% | 88.6% | 97% | 71.2% | 72.8% | 93.8% | 94.4% | 85.4% | 96.2% | 95.3% | 103% | 96.2% | 88.8% | 92.8% | 75.9% | 75.5% | 88.7% | 86.8% | 98.3% | 92.5% | 97.2% | 95.2% | 102% | 85.2% | 92.4% | 78.8% |
| CC1=CC=CC=C1N2\C(=N/C3=C(C(=CC=C3)C)C2=O)C[N]4C=NC5=C4N=CN=C5N | – | – | – | – | – | – | – | – | – | – | – | 107% | 106% | 122% | 108% | 110% | 106% | 107% | 94.4% | 69.2% | 72.9% | 67% | 108% | 109% | 109% | 97.1% | 113% | 92.6% | 94.8% | 80.8% | 67.2% | 64.5% | 61.1% |
| CCCCn1c(=O)n(Cc2ccccc2F)c(=O)c2nc(Cc3ccc(NC(C)=O)cc3)[nH]c21 | 97.6% | 155% | 75.7% | 24.9% | 52.4% | 77.6% | 86% | 76.5% | 78.6% | 68.6% | 71.2% | 82.3% | 82.9% | 78.1% | 79.5% | 82.5% | 77.8% | 83.9% | 82.4% | 79.5% | 86.7% | 76.9% | 107% | 108% | 106% | 104% | 125% | 59.5% | 57.7% | 89.6% | 69.4% | 63.8% | 68.8% |
| COC1=C(N2CCNC(C)C2)C(=CC3=C1N(\C=C(C(O)=O)/C3=O)C4CC4)F (centres undefined) | 89.4% | 82.7% | 103% | 115% | 105% | 123% | 103% | 117% | 95.2% | 92.8% | 77.2% | 100% | 87.7% | 88.6% | 99.5% | 96% | 96.8% | 96.6% | 104% | 20.3% | 111% | 103% | 97.6% | 86.9% | 98.2% | 94.3% | 100% | 110% | 94% | 99.3% | 74.2% | 99.1% | 95.8% |
| C[C@H]1[C@H](NC(=O)/C(=N/OC(C)(C)C(=O)O)c2csc(N)n2)C(=O)N1[S+](=O)([O-])O | 98.5% | 98% | 98.9% | 111% | 108% | 110% | 113% | 88.2% | 102% | 85.3% | 90.4% | 105% | 98.3% | 101% | 108% | 107% | 105% | 107% | 104% | 92.3% | 108% | 103% | 94.2% | 101% | 94.1% | 92.3% | 97.3% | 94.7% | 91.7% | 99.2% | 85.2% | 91.1% | 83.3% |
| C/C=C1\NC(=O)[C@H]2CSSCC/C=C\[C@H](CC(=O)N[C@H](C(C)C)C(=O)N2)OC(=O)[C@H](C(C)C)NC1=O | 102% | 119% | 119% | 105% | 17.7% | 4.68% | 4.81% | 4.43% | 5.27% | 4.81% | 4.24% | 99.6% | 97.5% | 104% | 94.9% | 18.1% | 4.23% | 3.46% | 3.14% | 2.93% | 2.29% | 2.53% | 93.7% | 90.3% | 103% | 108% | 30.1% | 4.52% | 4.41% | 3.52% | 3.86% | 1.77% | 3.47% |
| CC[C@H](CC[C@@H](C)[C@H]1CC[C@H]2[C@@H]3C\C=C/4C[C@@H](O)CC[C@]4(C)[C@H]3CC[C@]12C)C(C)C | 97.3% | 126% | 123% | 117% | 131% | 124% | 114% | 107% | 95.6% | 55.5% | 35.6% | 103% | 114% | 113% | 106% | 108% | 115% | 102% | 103% | 96.1% | 92.4% | 22.3% | 105% | 120% | 114% | 107% | 116% | 107% | 97.3% | 102% | 93.5% | 72.5% | 26.3% |
